From PubChem BioAssay (NCI)
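Five compound concentrations were applied to cells in 96-well plates for 48 hours; endpoints were derived by simple linear interpolation of the resulting dose-response curve. GI50 marks 50% less growth. Definition used: TGI = concentration required for complete inhibition of growth.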

Columns and labels:
Assay in all cases: NCI tumour cell line growth inhibition, 48 h
U251 CNS = test system: U251 CNS
OVCAR-5 ovarian = test system: OVCAR-5 ovarian
HCT-15 colon = test system: HCT-15 colon
SN12C renal = test system: SN12C renal
LOX IMVI melanoma = test system: LOX IMVI melanoma
TK-10 renal = test system: TK-10 renal
RPMI-8226 leukemia = test system: RPMI-8226 leukemia
SK-MEL-5 melanoma = test system: SK-MEL-5 melanoma
SK-MEL-28 melanoma = test system: SK-MEL-28 melanoma
PC-3 prostate = test system: PC-3 prostate

| Structure (SMILES) | TGI (U251 CNS) | TGI (OVCAR-5 ovarian) | TGI (HCT-15 colon) | TGI (SN12C renal) | TGI (LOX IMVI melanoma) | TGI (TK-10 renal) | TGI (RPMI-8226 leukemia) | GI50 (U251 CNS) | GI50 (OVCAR-5 ovarian) | GI50 (HCT-15 colon) | GI50 (SK-MEL-5 melanoma) | TGI (SK-MEL-5 melanoma) | GI50 (SN12C renal) | GI50 (LOX IMVI melanoma) | GI50 (SK-MEL-28 melanoma) | TGI (SK-MEL-28 melanoma) | GI50 (TK-10 renal) | GI50 (PC-3 prostate) | TGI (PC-3 prostate) | GI50 (RPMI-8226 leukemia) |
| --- | --- | --- | --- | --- | --- | --- | --- | --- | --- | --- | --- | --- | --- | --- | --- | --- | --- | --- | --- | --- |
| COC(=O)/C=C(C)/C=C/c1c(C)c(C(C)=O)c(C)n1C | > 100 µM | > 100 µM | > 100 µM | > 100 µM | > 100 µM | > 100 µM | > 100 µM |  |  |  |  |  |  |  |  |  |  |  |  |  |
| COC(=O)c1cc2c([nH]c3ccccc32)c(-c2nc3ccccc3cc2CO)n1 | > 100 µM | > 100 µM | > 100 µM | > 100 µM | > 100 µM | > 100 µM |  | 7.1 µM | > 100 µM | > 100 µM | 50.3 µM | > 100 µM | > 100 µM | > 100 µM | > 100 µM | > 100 µM | > 100 µM | > 100 µM | > 100 µM |  |
| COc1cc2c(cc1OC)-c1c(c3ccc([N+](=O)[O-])cc3c(=O)n1CCCN=[N+]=[N-])C2=O | > 100 µM | > 100 µM | > 100 µM | > 100 µM | > 100 µM | > 100 µM |  | 11.6 µM | > 100 µM | > 100 µM | 42.6 µM | > 100 µM | 46.7 µM | 25.3 µM | > 100 µM | > 100 µM | > 100 µM |  |  |  |
| CC(O)(c1ccc(OCCC[N+](C)(C)C)cc1)C(C)(O)c1ccc(OCCC[N+](C)(C)C)cc1 (centres undefined) | > 100 µM | > 100 µM | > 100 µM | > 100 µM | > 100 µM |  |  |  |  |  |  |  |  |  |  | > 100 µM |  |  |  |  |
| CC(Oc1ccc2c(=O)cc(-c3ccccc3)oc2c1)C(=O)O (centres undefined) | > 100 µM |  |  | > 100 µM | > 100 µM | > 100 µM |  |  |  |  |  | > 100 µM |  |  |  | > 100 µM |  |  |  |  |
| CCCCCCCCCCCCCP(=O)(OC)OC | 32.9 µM | 30.6 µM | 31.6 µM | 35 µM | 35.3 µM | 31.6 µM | 50.7 µM |  |  |  |  | 32.6 µM |  |  |  | 39.1 µM |  |  |  |  |
| O=C1C(c2ccccc2)=[N+]([O-])c2cc([N+](=O)[O-])ccc21 | > 100 µM | > 100 µM | 56.5 µM | 59.6 µM | 28.6 µM | 52.4 µM | 74 µM |  |  |  |  | 39.2 µM |  |  |  | 48.4 µM |  |  |  |  |
| C=C1CCCC2OC(OC)CCC12 (centres undefined) | > 100 µM | > 100 µM | > 100 µM | > 100 µM |  | > 100 µM | > 100 µM |  |  |  |  | > 100 µM |  |  |  |  |  |  |  |  |
| O=C(CO)CC(=O)C(=O)Nc1cccc(C(F)(F)F)c1 |  | > 100 µM | > 100 µM | > 100 µM | > 100 µM | > 100 µM | > 100 µM |  |  |  |  |  |  |  |  | > 100 µM |  |  |  |  |
| CC(=O)CCn1[nH]c(=O)c(Cl)c(Cl)c1=O |  | > 100 µM | > 100 µM | > 100 µM | > 100 µM | > 100 µM | > 100 µM |  |  |  |  | > 100 µM |  |  |  | > 100 µM |  |  |  |  |
| COc1ccc(C(=O)Nc2ccn(CCOC(=O)c3ccc(OC)cc3)c(=O)n2)cc1 | > 100 µM | > 100 µM | > 100 µM | > 100 µM | > 100 µM | > 100 µM | > 100 µM |  |  |  |  | > 100 µM |  |  |  | > 100 µM |  |  |  |  |
| Cl.[O-]c1cccc2cccnc12.[O-]c1cccc2cccnc12.[O-]c1cccc2cccnc12.[O-]c1cccc2cccnc12.[Ti+4] | 30.5 µM | 19.5 µM | 7.06 µM | > 91.1 µM | > 88.9 µM | > 100 µM | 2.67 µM | 2.53 µM | 2.71 µM | 0.354 µM |  | 2.46 µM | 2.74 µM | 1.69 µM | 4.33 µM | > 35.4 µM | 53.7 µM |  |  |  |
| CCCCCC1CC=CC(NC(=O)OCc2ccccc2)C1/C=C/CCCC1OCCO1 (centres undefined) | > 100 µM | > 100 µM | > 100 µM | > 100 µM | > 100 µM | > 100 µM | > 100 µM |  |  |  |  | > 100 µM |  |  |  | > 100 µM |  |  |  |  |
| CC1(C)C2=CCCC(=O)[C@@]2(C)CC[C@@H]1O | > 100 µM | > 100 µM |  | > 100 µM | > 100 µM | > 100 µM | > 100 µM |  |  |  |  | > 100 µM |  |  |  | > 100 µM |  |  |  |  |
| O=C(CC1(O)C(=O)Nc2c(Cl)cc(Cl)cc21)c1ccc([N+](=O)[O-])cc1 (centres undefined) | > 100 µM | > 100 µM | > 100 µM | > 68 µM | > 100 µM | > 100 µM | > 82.1 µM |  |  |  |  | > 57.3 µM |  |  |  | > 59.6 µM |  |  |  |  |
| CC[C@@]1(O)C(=O)OCc2c1cc1n(c2=O)Cc2cc3cccc(N)c3nc2-1 | 18.8 µM | > 100 µM |  | > 100 µM | 37.2 µM | > 100 µM | > 100 µM | 3.03 µM | 25.8 µM |  | 8.75 µM | > 100 µM | 3.58 µM | 4.19 µM | > 100 µM | > 100 µM | > 100 µM |  |  | > 100 µM |
| CCCCCCCCC1C(C)c2c([nH]c3ccccc23)C2C(=O)N(c3ccccc3)C(=O)C21 (centres undefined) | 22.9 µM | 33.6 µM | 25.6 µM | 23.8 µM |  | 37.1 µM | 12.9 µM |  |  |  |  | 31.7 µM |  |  |  | 34.3 µM |  |  |  |  |
| NS(=O)(=O)c1ccc(-n2nc(-c3ccccc3)cc2-c2cc(O)ccc2O)cc1 | > 100 µM | 92.6 µM | > 100 µM | > 100 µM | 63.2 µM | 95.2 µM |  | 46.4 µM | 25.3 µM | > 100 µM | > 100 µM | > 100 µM | > 100 µM | 27.7 µM | 94.3 µM | > 100 µM | 35.9 µM | 77.6 µM | > 100 µM |  |
| C=C(C)C1CC=C(C)C(O)([C@@]2(O)C[C@H](C(=C)C)CC=C2C)C1 (some centres undefined) | 34.7 µM | 63.5 µM |  | 33.2 µM | 26.9 µM | > 100 µM | 48.7 µM |  |  |  |  | 28.3 µM |  |  |  | 95.9 µM |  |  |  |  |
| CCC1=CCC(P(=O)(c2ccccc2)c2ccccc2)CC1C (centres undefined) | > 100 µM | > 100 µM | > 100 µM | > 100 µM | > 100 µM | > 100 µM | 52.9 µM |  |  |  |  | 70.8 µM |  |  |  | > 100 µM |  |  |  |  |
| Nc1nc(N)c(CCCCc2ccccc2)c(/C=C/c2ccc([N+](=O)[O-])cc2)n1 | 11.4 µM | 15.8 µM | 7.09 µM | 8.96 µM | 13.5 µM | 6.72 µM | 19 µM |  |  |  |  | 16.3 µM |  |  |  | 12.8 µM |  |  |  |  |
| CCN(CC)CCCNc1nccc2c(C)c3[nH]c4ccncc4c(=O)c3cc12 | 11.8 µM | 19.7 µM | > 100 µM | 8.9 µM | 3.26 µM | 22.5 µM | 13.7 µM |  |  |  |  | 14.1 µM |  |  |  | 13.4 µM |  |  |  |  |
| O=c1oc2c(O)c(O)cc3c(=O)oc4c(O)c(O)cc1c4c23 | 79 µM | > 100 µM | > 100 µM | > 100 µM | > 100 µM | > 100 µM | > 100 µM |  | > 100 µM |  | > 100 µM | > 100 µM |  |  | > 100 µM | > 100 µM |  |  |  | > 100 µM |
| Cc1cc(=O)n2c(cc3cccccc32)n1 | > 100 µM | > 100 µM | > 100 µM | > 100 µM | > 100 µM | > 100 µM | > 100 µM |  |  |  |  |  |  |  |  | > 100 µM |  |  |  |  |
| CC1(C)C=C(N2CCN(C3=CC(C)(C)NC(C)(C)C3)CC2)CC(C)(C)N1 | > 100 µM | > 100 µM | > 100 µM | > 100 µM | > 100 µM | > 100 µM | > 100 µM |  |  |  |  | > 100 µM |  |  |  | > 100 µM |  |  |  |  |
| c1ccc(N2CCN(CCCN3CCc4c([nH]c5ccccc45)C3c3cccnc3)CC2)cc1 (centres undefined) | > 31.6 µM | > 100 µM | > 100 µM | 99.2 µM | > 100 µM | > 100 µM | > 100 µM |  |  |  |  | > 100 µM |  |  |  | > 100 µM |  |  |  |  |
| CCCCNP1(NCCCC)=NP(NCCCC)(NCCCC)=NP(NCCCC)(NCCCC)=NP(NCCCC)(NCCCC)=N1 | 3.81 µM | 9.81 µM | 99.5 µM | 12.5 µM | 2.11 µM | 13 µM |  | 0.296 µM | 1.61 µM | 21.2 µM | 0.541 µM | 1.89 µM | 0.331 µM | 0.29 µM | 2.64 µM | 8.68 µM | 0.933 µM | 0.24 µM | 12.4 µM |  |
| CC(=O)OC(C)(C)C[N+](=O)[O-] | > 100 µM | > 100 µM | > 100 µM | > 100 µM | > 100 µM | > 100 µM | > 100 µM |  |  |  |  |  |  |  |  | > 100 µM |  |  |  |  |
| Cc1nccc2c3ccc(OCc4cn(-c5ccc(Br)cc5)nn4)cc3n(CCCc3ccccc3)c12 | 3.79 µM | 6.72 µM |  |  |  | 3.29 µM |  | 1.92 µM | 2.15 µM |  | 3.92 µM | > 100 µM |  |  | 1.72 µM | 3.45 µM | 1.62 µM | 3.42 µM | > 100 µM |  |
| CN(CCc1ccccn1)/[N+]([O-])=N/O (tested in a mixture with another compound) |  | > 100 µM | > 100 µM | > 100 µM |  |  | > 100 µM |  |  |  |  | > 100 µM |  |  |  | > 100 µM |  |  |  |  |
